Results on 4 compounds are retold here after paper PMC4275233, “Evaluation of the Cardiotoxicity of Mitragynine and Its Analogues Using Human Induced Pluripotent Stem Cell-Derived Cardiomyocytes” (PLoS ONE, 2014).

pIC50: −log10 of the molar value.

In test [1] the target is T1, hERG (Kv11.1) (Homo sapiens, UniProt Q12809).
T1 construct: gene KCNH2
The experiment in a line: whole-cell patch clamp: hERG-HEK293 cells ([…]) and I Kr in hiPSC-CMs (IC50). The class given is cell-based. (The patch-clamp technique gives a direct electrical read-out from membranes.)

Test [2] deals with T1, hERG (Kv11.1). The test can be described thus: whole-cell patch clamp of I Kr tail current in hiPSC-CMs. The format is cell-based.

T1 sequence (Q12809 whole entry): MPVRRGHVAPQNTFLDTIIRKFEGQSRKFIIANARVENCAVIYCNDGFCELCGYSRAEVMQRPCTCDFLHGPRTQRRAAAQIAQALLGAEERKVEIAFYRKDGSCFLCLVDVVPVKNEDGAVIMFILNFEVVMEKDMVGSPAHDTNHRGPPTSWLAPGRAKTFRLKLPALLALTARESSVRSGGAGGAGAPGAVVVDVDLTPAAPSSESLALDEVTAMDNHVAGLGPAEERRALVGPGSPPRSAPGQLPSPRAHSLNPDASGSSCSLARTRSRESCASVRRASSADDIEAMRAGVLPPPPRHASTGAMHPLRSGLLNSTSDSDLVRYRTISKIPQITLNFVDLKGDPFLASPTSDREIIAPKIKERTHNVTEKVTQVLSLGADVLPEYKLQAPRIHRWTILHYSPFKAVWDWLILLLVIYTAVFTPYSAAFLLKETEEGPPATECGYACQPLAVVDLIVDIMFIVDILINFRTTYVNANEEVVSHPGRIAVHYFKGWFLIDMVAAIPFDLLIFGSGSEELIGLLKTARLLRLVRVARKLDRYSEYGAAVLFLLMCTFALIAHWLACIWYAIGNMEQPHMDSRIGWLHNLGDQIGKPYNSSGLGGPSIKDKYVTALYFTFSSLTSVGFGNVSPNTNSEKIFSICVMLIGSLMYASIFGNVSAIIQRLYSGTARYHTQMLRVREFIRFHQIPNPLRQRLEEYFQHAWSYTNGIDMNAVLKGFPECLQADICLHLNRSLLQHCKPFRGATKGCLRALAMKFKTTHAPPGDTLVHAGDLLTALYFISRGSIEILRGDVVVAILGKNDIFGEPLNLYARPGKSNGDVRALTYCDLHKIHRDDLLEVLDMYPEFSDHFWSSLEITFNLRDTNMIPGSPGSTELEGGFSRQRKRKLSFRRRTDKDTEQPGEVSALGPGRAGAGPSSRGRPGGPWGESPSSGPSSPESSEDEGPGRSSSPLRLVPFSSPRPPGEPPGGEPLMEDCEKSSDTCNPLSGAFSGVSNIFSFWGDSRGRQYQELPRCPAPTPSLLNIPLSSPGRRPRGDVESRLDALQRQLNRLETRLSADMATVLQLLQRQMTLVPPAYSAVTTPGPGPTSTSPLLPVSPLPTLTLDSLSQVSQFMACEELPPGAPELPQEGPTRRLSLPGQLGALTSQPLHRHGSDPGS

With `CC[C@@H]1CN2CCc3c([nH]c4cccc(OC)c34)[C@@H]2C[C@@H]1/C(=C\OC)C(=O)OC` [Mitragynine], the pIC50 (commonly the IC50 on a negative log10 scale, so that one unit is a factor of ten) against hERG (Kv11.1) [1] is 6.04.

Regarding `CC[C@H]1CN2CCc3c([nH]c4cccc(OC)c34)[C@@H]2C[C@@H]1/C(=C\OC)C(=O)OC` [Speciogynine], at hERG (Kv11.1) [2], the pIC50 is 5.99.

`C=C[C@H]1CN2CCc3c([nH]c4cccc(OC)c34)[C@@H]2C[C@@H]1/C(=C\OC)C(=O)OC` [Paynantheine]: the pIC50 on hERG (Kv11.1) [2] was 5.61.

On hERG (Kv11.1) [2], `CC[C@@H]1CN2CCc3c([nH]c4cccc(OC)c34)[C@H]2C[C@@H]1/C(=C\OC)C(=O)OC` [Speciociliatine] showed a pIC50 of 5.83.
